Assay results: patent US7692014B2, “Inhibitors of the HIV integrase enzyme” (Pfizer, Inc., priority 2004, dated 2010)
pEC50, pIC50: −log10 of the molar value.

What was measured:
[1] = target: T1, Full-length wild type HIV-1 integrase (SF1) (Human immunodeficiency virus type 1 group M subtype B, UniProt P04585); assay: Integrase strand-transfer scintillation proximity assay; assay type: biochemical; settings: integrase strand-transfer SPA; read-out: IC50
T1 construct: made in house; host or cells: E. coli BL21 (DE3), pET24a vector
Source text: Integrase Strand-Transfer Scintillation Proximity Assay Oligonucleotides
The annealed product represents preprocessed viral ds-DNA derived from the LTR U5 sequence of the viral genome. A ds-DNA control to test for non-specific interactions was made using a 3′ di-deoxy derivative of oligonucleotide #1 annealed to oligonucleotide #2. The CA overhang at the 5′ end of the non-biotinylated strand of the ds-DNA was created artificially by using a complimentary DNA oligonucleotide shortened by 2 base pairs. This configuration eliminates the requisite 3′ processing step of the integrase enzyme prior to the strand-transfer mechanism.
Host ds-DNA was prepared as an unlabeled and [^3H]-thymidine labeled product from annealed oligonucleotide #3—5-[…]-3′ (SEQ ID NO: 3), and oligonucleotide #4—5′-[…]-3′ (SEQ ID NO: 4), both synthesized by TriLink BioTechnologies, Inc. (San Diego, Calif.). The annealed product had overhanging 3′ ends of poly(dA). […] The radiolabeled product was purified using a NENSORB cartridge and stored in stabilized aqueous solution (PerkinElmer).
Reagents: Streptavidin-coated polyvinyltoluene (PVT) SPA beads were purchased from Amersham Biosciences (Piscataway, N.J.). Cesium chloride was purchased from Shelton Scientific, Inc. (Shelton, Conn.). White, polystyrene, flat-bottom, non-binding surface, 96-well plates were purchased from Corning. All other buffer components were purchased from Sigma (St. Louis, Mo.) unless otherwise indicated. Enzyme Construction: Full-length wild type HIV-1 integrase (SF1) sequence (amino acids 1-288) was constructed in a pET24a vector (Novagen, Madison, Wis.). […] Enzyme Purification: Full length wild-type HIV Integrase was expressed in E.coli BL21 (DE3) cells and induced with 1 mM isopropyl-1 thio-β-D-galactopyranoside (IPTG) when cells reached an optical density between 0.8-1.0 at 600 nm. Cells were lysed by microfluidation in 50 mM HEPES pH 7.0, 75 mM NaCl, 5 mM DTT, 1 mM 4-(2-Aminoethyl)benzenesulfonylfluoride HCl (AEBSF). Lysate was then centrifuged 20 minutes at 11 k rpm in GSA rotor in Sorvall RC-5B at 4° C. Supernant was discarded and pellet resuspended in 50 mM HEPES pH 7.0, 750 mM NaCl, 5 mM DTT, 1 mM AEBSF and homogenized in a 40 mL Dounce homogenizer for 20 minutes on ice. Homogenate was then centrifuged 20 minutes at 11 k rpm in SS34 rotor in Sorvall RC-5B at 4° C. Supernant was discarded and pellet resuspended in 50 mM HEPES pH 7.0, 750 mM NaCl, 25 mM CHAPS, 5 mM DTT, 1 mM AEBSF. Preparation was then centrifuged 20 minutes at 11 k rpm in SS34 rotor in Sorvall RC-5B at 4° C.
Supernant was then diluted 1:1 with 50 mM HEPES pH 7.0, 25 mM CHAPS, 1 mM DTT, 1 mM AEBSF and loaded onto a Q-Sepharose column pre-equilibrated with 50 mM HEPES, pH 7.0, 375 mM NaCl, 25 mM CHAPS, 1 mM DTT, 1 mM AEBSF. The flow through peak was collected and NaCl diluted to 0.1 M with 50 mM HEPES pH 7.0, 25 mM CHAPS, 1 mM DTT, 0.5 mM AEBSF and loaded onto a SP-Sepharose column pre-equilibrated with 50 mM HEPES pH 7.0, 100 mM NaCl, 25 mM CHAPS, 1 mM DTT, 0.5 mM AEBSF. After washing the column with the equilibration buffer, a 100 to 400 mM NaCl gradient was run. The eluted integrase was concentrated and run on a S-300 gel diffusion column using 50 mM HEPES pH 7.0, 500 mM NaCl, 25 mM CHAPS, 1 mM DTT, 0.5 mM AEBSF. […] All columns were run in a 4° C. cold room.
Viral DNA Bead Preparation: Streptavidin-coated SPA beads were suspended to 20 mg/mL in 25 mM 3-morpholinopropanesulfonic acid (MOPS) (pH 7.2) and 1.0% NaN3.

[2] = test system: RF strain of HIV-1 in CEM-SS cells; assay: HIV-1 cell protection assay (XTT dye reduction); assay type: cell-based; settings: Human immunodeficiency virus 1, CEM-SS, 144 h, HIV-1 RF, six days
Procedure: HIV-1 Cell Protection Assay
The antiviral activities of potential modulator compounds (test compounds) were determined in HIV-1 cell protection assays using the RF strain of HIV-1, CEM-SS cells, and the XTT dye reduction method (Weislow, O. S. et al., J. Natl. Cancer Inst. 81: 577-586 (1989)). Subject cells were infected with HIV-1 RF virus at an moi of 0.025 to 0.819 or mock infected with medium only and added at 2×10^4 cells per well into 96 well plates containing half-log dilutions of test compounds. Six days later, 50 μl of XTT solution (1 mg/ml XTT tetrazolium and […] phenazine methosulfate) were added to the wells and the plates were reincubated for four hours. Viability, as determined by the amount of XTT formazan produced, was quantified spectrophotometrically by absorbance at 450 nm.
Data from CPE assays were expressed as the percent of formazan produced in compound-treated cells compared to formazan produced in wells of uninfected, compound-free cells. […] The therapeutic index was calculated by dividing the cytotoxicity (CC50) by the antiviral activity (EC50).

Structure (SMILES) | pIC50 [1] | pEC50 [2]
COCCOCc1cn(Cc2ccc(F)cc2)c2cnc3c(=O)n(O)ccc3c12 [Example 9, 3-(4-fluorobenzyl)-7-hydroxy-1-[(2-methoxyethoxy)methyl]-3,7-dihydro-6H-pyrrolo[2,3-c]-1,7-naphthyridin-6-one] | 7.82 | 9.28
C[C@@H](OCc1cn(Cc2ccc(F)cc2)c2cnc3c(=O)n(O)ccc3c12)c1ccccc1 [Example 38, 3-(4-fluorobenzyl)-7-hydroxy-1-{[(1R)-1-phenylethoxy]methyl}-3,7-dihydro-6H-pyrrolo[2,3-c]-1,7-naphthyridin-6-one] | 6.92 | 9.52
O=C(CN1CCN(Cc2cn(Cc3ccc(F)cc3)c3cnc4c(=O)n(O)ccc4c23)CC1)N1CCCC1 [Example 15, 3-(4-fluorobenzyl)-7-hydroxy-1-{[4-(2-oxo-2-pyrrolidin-1-ylethyl)piperazin-1-yl]methyl}-3,7-dihydro-6H-pyrrolo[2,3-c]-1,7-naphthyridin-6-one] | 8.30 | –
CCN(CC)CCN(CC)Cc1cn(Cc2ccc(F)cc2)c2cnc3c(=O)n(O)ccc3c12 [Example 50, 1-{[[2-(diethylamino)ethyl] (ethyl)amino]methyl}-3-(4-fluorobenzyl)-7-hydroxy-3,7-dihydro-6H-pyrrolo[2,3-c]-1,7-naphthyridin-6-one] | 7.94 | –
O=c1c2ncc3c(c(S(=O)(=O)NCCc4c[nH]c5ccccc45)cn3Cc3ccc(F)cc3)c2ccn1O [Example 21, 3-(4-fluorobenzyl)-7-hydroxy-N-{2-(1H-indol-3-yl)ethyl]-6-oxo-6,7-dihydro-3H-pyrrolo[2,3-c]-1,7-naphthyridine-1-sulfonamide] | 7.34 | –
O=C1CN(S(=O)(=O)c2cn(Cc3ccc(F)cc3)c3cnc4c(=O)n(O)ccc4c23)CCN1 [Example 22, 3-(4-fluorobenzyl)-7-hydroxy-1-[(3-oxopiperazin-1-yl)sulfonyl]-3,7-dihydro-6H-pyrrolo[2,3-c]-1,7-naphthyridin-6-one] | 8.22 | –
O=c1c2ncc3c(c(CNCc4ccccn4)cn3Cc3ccc(F)cc3)c2ccn1O [Example 44] | 7.51 | –
CN(C)Cc1cn(Cc2ccc(F)cc2)c2cnc3c(=O)n(O)ccc3c12 [Example 4, 1-[(dimethylamino)methyl]-3-(4-fluorobenzyl)-7-hydroxy-3,7-dihydro-6H-pyrrolo[2,3-c]-1,7-naphthyridin-6-one] | 8.10 | –
